“Also recorded” adds a separate entry of the source.
Columns and labels:
murine CerS1 = molecular target: T1, murine CerS1 (Mus musculus, UniProt P27545); experiment: Ceramide synthase assay, NBD-dihydrosphingosine, C18:0-CoA; COS cells expressing murine CerS1; assay type: biochemical; details: inhibitor range 10 nM–100 μM; read-out: IC50 mCerS1
T1 construct: expressed in transfected cells; host or cells: COS cells (lentiviral infection)
Description: Ceramide synthase assays were carried out using an HPLC-based assay with a fluorescent NBD-dihydrosphingosine substrate. All cell lines used for these assays were originally sourced from ATCC. […] Human CerS expression plasmids (pCMV6 plasmids from Origene) were transfected using FuGene-6 transfection reagent, and cells were harvested 24 h after transfection in 20 mM Hepes pH 7.4, 10 mM KCl, 1 mM dithiothreitol, 3 mM β-glycerophosphate, and EDTA-free complete protease inhibitor cocktail (Roche). Cells were sonicated in a Diagenode Bioruptor sonicating bath for 5 min, after which cell extracts were cleared by centrifugation at 800 × g for 10 min. Protein concentration in the supernatant was assayed using the bicinchoninic acid (BCA) assay, and the supernatant stored at −80 °C. COS cells were infected with lentiviral constructs expressing murine CerS1, 2, or 5, then homogenised as described above.
(§1) The reaction buffer consisted of 20 mM Hepes pH 7.4, 25 mM KCl, 2 mM MgCl2, 0.5 mM dithiothreitol, 0.1% fatty acid free BSA, 10 μM NBD-dihydrosphingosine and 50 μM fatty acid free BSA. […] The reaction mixture was transferred to a glass HPLC vial with 300 μL fused glass insert (Thermo Fisher Scientific) and NBD-dihydroceramide reaction products were analysed on a Thermo Scientific Surveyor HPLC connected to a Shimadzu RF-10AXL fluorescent detector (set to gain of 3). […]

murine CerS2 = murine CerS2 (Mus musculus, UniProt Q924Z4); experiment: Ceramide synthase assay, NBD-dihydrosphingosine, C24:1-CoA; COS cells expressing murine CerS2; assay type: biochemical; details: inhibitor range 10 nM–100 μM; read-out: IC50 mCerS2
Description: Ceramide synthase assays were carried out using an HPLC-based assay with a fluorescent NBD-dihydrosphingosine substrate. All cell lines used for these assays were originally sourced from ATCC. […] Cells were sonicated in a Diagenode Bioruptor sonicating bath for 5 min, after which cell extracts were cleared by centrifugation at 800 × g for 10 min. Protein concentration in the supernatant was assayed using the bicinchoninic acid (BCA) assay, and the supernatant stored at −80 °C. COS cells were infected with lentiviral constructs expressing murine CerS1, 2, or 5, then homogenised as described above.
as §1, with “BSA. C18:0-CoA was used as the fatty acyl substrate for CerS1 and CerS4; C24:1-CoA for CerS2; and C16:0-CoA for CerS5 and CerS6. All reactions were run in triplicate.” for “BSA.”

cortical neuron cultures = experiment: Live-cell ceramide synthase assay: deuterated ceramide from D7-dihydrosphingosine; details: two hour pre-treatment
Description: Mouse cortical neurons were prepared from E16 pups[65] and seeded at 5 × 10^6 cells/well in poly-D-lysine coated six-well plates. Two weeks after seeding, neurons were pre-treated for 2 h with P053, then incubated for a further 1 h with 1 μM deuterated dihydrosphingosine (D7-dhSph). Lipid extraction and quantification of D7-ceramide using liquid chromatography-tandem mass spectrometry (LC-MS/MS)[34] is described below.
Targeted quantification of ceramide, HexCer, and SM species in primary neurons, HEK293 cells, mouse brain, and gastrocnemius muscle lipid extracts was performed by LC-MS/MS on a TSQ Access triple quadrupole mass spectrometer (Thermo Fisher Scientific)[69]. Lipids were separated on a 3 × 150 mm Agilent XDB-C8 column (5 μM pore size) with a 10 min isocratic chromatography run using methanol containing 0.2% formic acid as the mobile phase. Precursor ions were the precise [M + H] species for each lipid. […] Deuterated (D7) ceramides were detected as the corresponding m/z + 7 ions.

[1] = Detection of P053-phosphate in plasma of dosed mice, LC-MS/MS; assay type: in vivo; details: 5 mg/kg/day for 6 weeks
Description: LC-MS/MS was performed on a TSQ Quantum Access triple quadrupole mass spectrometer in positive ion mode, coupled to an Accela UPLC system (Thermo Scientific). Extracts (20 μL) were separated on a 2 × 100 mm Eclipse XDB-C8 column with 1.8 μm particle size (Agilent Technologies), using a 7.5 min binary HPLC gradient: 0 min, 70% B ([…]); 1.5 min, 70% B; 3.5 min, 95% B; 4 min, 95% B; 4.5 min, 70% B; 7.5 min 70% B. Mobile phase A: 2 mM ammonium formate/1% formic acid in water; mobile phase B: 1 mM ammonium formate/1% formic acid in methanol. The flow rate was 0.4 mL min^−1, increasing to 0.5 mL min^−1 from 5–7 min, and column oven 30 °C. […] Visualisation and quantification of peaks was performed using Thermo Fisher’s XCalibur software v2.2.
Supplementary Figure 8. P053 is not phosphorylated in situ or in vivo. (a-b) HEK293 cells […]
LC-MS/MS analysis. Chromatograms for (a) FTY720 and its phosphate, and (b) P053 and its putative phosphate are shown. […]
mg/kg/day for 6 weeks, corresponding to a plasma concentration of ~300 nM. No peak is […]
(1 picture or pasted object on this page, not shown here)

soleus muscles = experiment: 14C-palmitate oxidation and incorporation into TAG in isolated soleus muscles of treated mice; assay type: in vivo
Description: After a 30 min pre-incubation, muscles were transferred into vials containing 0.5 mCi/mL of [1-^14C]-palmitate in modified Krebs-Henseleit buffer for another 1 h. The reaction was stopped by removal of the muscles and addition of 1 M perchloric acid to the reaction mixture. ^14C-labelled CO2 was quantified as described above. The muscles were blotted dry and snap frozen in liquid nitrogen for subsequent lipid extraction and TLC. Muscles were homogenized using a Polytron (Kinematica, Littau-Lucerne, Switzerland) in 1.5 mL 2:1 chloroform-methanol (v/v). […] The upper aqueous phase was used to quantify ASM, and the lower organic phase was collected and dried under stream of N2, then reconstituted in hexane and spotted on a Silica Gel 60 F254 TLC plate. The TLC plate was developed in hexane/diethyl ether/glacial acetic acid (85:15:1), then air dried. TAG bands were visualised using iodine vapour staining, using an external standard to mark their position, then scraped into vials and quantified by liquid scintillation counting.

Chain of murine CerS2 (Q924Z4 whole entry): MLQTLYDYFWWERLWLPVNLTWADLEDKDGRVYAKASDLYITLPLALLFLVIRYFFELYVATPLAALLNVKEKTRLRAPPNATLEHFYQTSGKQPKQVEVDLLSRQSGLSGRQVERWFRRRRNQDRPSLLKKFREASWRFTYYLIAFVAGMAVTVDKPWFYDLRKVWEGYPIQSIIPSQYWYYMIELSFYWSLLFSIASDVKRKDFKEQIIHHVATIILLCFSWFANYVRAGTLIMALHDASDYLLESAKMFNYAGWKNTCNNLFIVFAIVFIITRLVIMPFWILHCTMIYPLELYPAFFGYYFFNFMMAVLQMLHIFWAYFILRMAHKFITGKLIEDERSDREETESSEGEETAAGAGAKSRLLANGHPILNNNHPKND
T1 sequence (P27545 whole entry): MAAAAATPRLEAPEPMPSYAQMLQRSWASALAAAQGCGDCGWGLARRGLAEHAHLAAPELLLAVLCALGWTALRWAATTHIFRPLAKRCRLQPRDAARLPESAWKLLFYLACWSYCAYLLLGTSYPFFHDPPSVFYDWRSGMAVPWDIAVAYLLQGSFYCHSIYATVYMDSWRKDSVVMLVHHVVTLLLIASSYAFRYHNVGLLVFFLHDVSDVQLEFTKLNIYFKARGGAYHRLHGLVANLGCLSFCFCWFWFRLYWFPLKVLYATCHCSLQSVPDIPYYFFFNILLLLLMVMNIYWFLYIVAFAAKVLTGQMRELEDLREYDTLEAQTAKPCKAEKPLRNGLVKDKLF

IC50 (murine CerS1) [µM]	IC50 (murine CerS2) [µM]	SMILES	melting point [°C]	de novo C18:0 ceramide synthesis from deuterated dihydrosphingosine (cortical neuron cultures)	phosphate of the compound in plasma of mice [1]	oxidation of 14C-palmitate in soleus muscles (soleus muscles; 2 weeks, 5 mg/kg)	incorporation of 14C-palmitate into TAG (soleus muscles; 2 weeks, 5 mg/kg, 1 h incubation)	increase of the rate of palmitate oxidation in muscle (soleus muscles; P053 treatment) [%]
5.6 ± 0.05	10.6 ± 0.13	CCCCCCCCc1ccc(CCC(N)(CO)CO)cc1 [FTY720, reference compound]						
		C[C@@](N)(CO)CCc1ccc(OCc2ccccc2)cc1 [G024, (2S)-2-amino-4-(4′-benzyloxyphenyl)-2-methyl-1-butanol]	196.7 to 197.6					
0.46 ± 0.08	18.5 ± 0.12	C[C@@](N)(CO)CCc1ccc(OCc2ccc(Cl)c(Cl)c2)cc1 [P053, (S)-2-amino-4-(4-(3,4-dichlorobenzyloxy)phenyl)-2-methylbutan-1-ol]		dose-dependent inhibition	only background signal is detected; also recorded: not detected	significantly increased	unchanged	23

Source: PMC6104039 (Nature Communications, 2018)
